Patent publication US20140162974A1, “METHODS FOR MODULATION OF PHOSPHORUS AND FGF23” (Luitpold Pharmaceuticals, Inc., priority 2012, published 2014)

Tests used:
Phosphorus = assay: VIT-23 study: phosphorus at study visits; assay type: in vivo, human
Method: (§1) Subjects with a hemoglobin (Hgb) that meets inclusion requirements and no exclusionary criteria will be offered participation in this 5-6 week study.
(§2) During the Treatment Phase, all subjects received a maximum dose of 1000 mg of IV iron. […] If no reaction occurred, the remainder of the dose (up to 15 mg/kg or 1000 mg including the test dose) was given as per Investigator. The infusion was given only when resuscitative techniques for the treatment of anaphylactic and anaphylactoid reactions were readily available.
(§3) Primary Endpoints included changes in blood and urine markers of phosphate and bone metabolism following IV iron administration. Blood markers include (all performed in morning after 10 hr fast): Serum Phosphate; Serum Potassium; Plasma Fibroblast growth factor 23 via 2nd generation Immutopics C-terminal assay; Serum Vitamin D; 1, 25 dihydroxy Vitamin D (1,25 [OH]2D); 25 hydroxy Vitamin D (250H-D); Serum Osteocalcin; Serum Bone-specific Alkaline phosphatase; Plasma intact Parathyroid hormone; Serum creatinine; Hepcidin; Reticulocyte count; Hemoglobin; Ferritin; Transferrin Saturation (TSAT); and Sample for archive. Urine markers (collected over a 3 hour period in the morning) (ratio of phosphate to creatinine determined to offset inter-patient variability in urine concentration) include: Phosphate; Creatinine; Calcium; Amino acids; Glucose; Albumin; Deoxypyridinoline cross link (Dpd)—a collagen type I cross link that indicates bone resorption; Beta-2-microglobulin; and Sample for archive.
(§4) All subjects had laboratory assessments at Screening, Day 0, Day 1 (24 hrs), Day 7, Day 14, and Day 35. Any subject with a change in phosphate value after Day 0 had additional phosphate measurements at 14 day intervals (following Day 35) until the level returned to normal (as defined by the laboratory reference range). Safety evaluation for all subjects included adverse events, physical examination, including vital signs, and laboratory assessments. Three hour urine collections was also performed on Day 0, Day 1 (24 hrs), Day 7, Day 14, and Day 35. Any subject who withdrew from the study will receive a follow up phone call 30 days after they received study drug.
(§5) The “baseline” was the value at Day 0 prior to administration of any study drug. The value of “n” for the baseline measurement may have be different at each study visit because the baseline values were assessed only for those individuals with data at the given visit.

[1] = system: C-terminal FGF23 (cFGF23); assay: Example 3 trial: plasma C-terminal FGF23; assay type: in vivo, human; conditions: for effect on cFGF23 levels: in vivo; for lowering of cFGF23 levels within 24 hours: intravenous iron in iron deficient women; for C-terminal FGF23, Day 1 / C-terminal FGF23, Day 7 / C-terminal FGF23, Day 14 / C-terminal FGF23, Day 35: mean ± standard error, unit from the 3rd table
Method: Study visits were on Days 0 (when iron was infused), 1 (24 hours after iron infusion), 7, 14, and 35. The primary objectives were to determine the effect of iron deficiency on cFGF23 and iFGF23 levels and the effect of intravenous iron on iFGF23 and cFGF23 levels.
Randomization occurred centrally via a fax-based system. […] The complete dose was infused over 15 minutes on day 0. […] An initial test dose of 25 mg was administered slowly over 5 minutes.
Laboratory testing of blood and three-hour urine collections was performed at the screening visit and on study days 0 (when iron was infused), 1 (24 hours after iron infusion), 7, 14, and 35 (see e.g., FIG. 2A). Any subject who experienced a reduction in serum phosphate below the normal range after day 0 underwent additional phosphate measurements at 14 day intervals following day 35 until the level returned to the normal reference range. Safety evaluations of all subjects included ascertainment of adverse events, physical examinations at all study visits, and laboratory assessments. Any subject who withdrew from the study received a follow-up phone call to ascertain adverse events 30 days after they received study drug.
Blood and urine samples were sent to a central laboratory for analysis (Covance Central Laboratory Service, Indianapolis, Ind.). Hemoglobin, blood counts, iron indices, electrolytes, and serum and urinary phosphate and creatinine were measured with standard, automated, multi-analyte techniques. Urinary fractional excretion of phosphate (FEPi) was calculated from the three-hour, morning urine collections as urinary phosphate x serum creatinine/serum phosphate x urinary creatinine. Serum levels of 25-hydroxyvitamin D and 1,25-dihydroxyvitamin D were measured in duplicate by radioimmunoassay (DiaSorin, Stillwater, Minn.) with intra-assay coefficients of variation (CV)<11.6%. Plasma C-terminal FGF23 (cFGF23) was measured in duplicate in EDTA-plasma samples using a human FGF23 immunometric assay capable of detecting both the intact peptide and its C-terminal fragments (Immutopics, San Clemente, Ca) with intra-assay CV≦3.8%. Because cFGF23 testing was performed in parallel with rolling enrollment and follow-up, all cFGF23 assay plates tested combinations of baseline and post-intervention samples from multiple study participants. Serum intact FGF23 (iFGF23) was measured in batches of baseline and post-intervention samples from multiple study participants at study end using an immunometric assay that detects the intact peptide exclusively (Kyowa Medex Company, Shizuoka, Japan) with intra-assay CV<2.7%. Serum hepcidin levels were measured on days 0, 7, and 35 using an enzyme-linked immunosorbent assay (Intrinsic LifeSciences, La Jolla, Calif.) with intra-assay CV≦19%. Urinary amino acids, glucose, albumin, and beta 2 microglobulin were measured to test for the possibility of global proximal tubular dysfunction. Urinary deoxypyridinoline cross link, and serum osteocalcin and bone-specific alkaline phosphatase were measured to assess bone turnover.
Baseline characteristics are presented as mean±standard error for continuous variables and as proportions for categorical variables. The association between iron indices and baseline and change in FGF23 levels was assessed with Spearman correlations. Restricted maximum likelihood-based repeated measures analyses (linear mixed models) that considered the effects of treatment, visit, and treatment x time interaction, with baseline values treated as a fixed covariate were used for the primary analyses of mean changes from baseline in continuous markers of phosphate homeostasis. The models employed unstructured covariance structures without imputing missing values. All outcome variables that were not normally distributed were analyzed after natural log-transformation. […]

FGF-23 C-Terminal = assay: VIT-23 study: plasma FGF-23 C-terminal assay; assay type: in vivo, human
Method: as §1, §2, §3, §4, §5

[2] = 13-week cumulative dose pre-clinical studies; assay type: in vivo, dogs and rats; conditions: over 13 weeks; clinical signs of iron accumulation in liver, spleen, kidneys
[3] = Day 7 after single IV dose up to 1000 mg iron
[4] = Day 14 after single IV dose up to 1000 mg iron
[5] = Day 35 after single IV dose up to 1000 mg iron

Substance | Phosphorus, Visit, Mean (Phosphorus; [3]) [mg/dL] | Phosphorus, Change to Visit, Max (Phosphorus; Day 7 vs baseline) [mg/dL] | Phosphorus, Change to Visit, Mean (Phosphorus; Day 7 vs baseline) [mg/dL] | Phosphorus, Change to Visit, Median (Phosphorus; Day 7 vs baseline) [mg/dL] | Phosphorus, Change to Visit, Min (Phosphorus; Day 7 vs baseline) [mg/dL] | Phosphorus, Visit, Mean (Phosphorus; [4]) [mg/dL] | Phosphorus, Change to Visit, Max (Phosphorus; Day 14 vs baseline) [mg/dL] | Phosphorus, Change to Visit, Mean (Phosphorus; Day 14 vs baseline) [mg/dL] | Phosphorus, Change to Visit, Median (Phosphorus; Day 14 vs baseline) [mg/dL] | Phosphorus, Change to Visit, Min (Phosphorus; Day 14 vs baseline) [mg/dL] | Phosphorus, Visit, Mean (Phosphorus; [5]) [mg/dL] | Phosphorus, Change to Visit, Max (Phosphorus; Day 35 vs baseline) [mg/dL] | Phosphorus, Change to Visit, Mean (Phosphorus; Day 35 vs baseline) [mg/dL] | Phosphorus, Change to Visit, Median (Phosphorus; Day 35 vs baseline) [mg/dL] | Phosphorus, Change to Visit, Min (Phosphorus; Day 35 vs baseline) [mg/dL] | C-terminal FGF23, Change from baseline ([1]; Day 1) [%] | C-terminal FGF23, Change from baseline ([1]; Day 7) [%] | C-terminal FGF23, Change from baseline ([1]; Day 14) [%] | C-terminal FGF23, Change from baseline ([1]; Day 35) [%] | effect on cFGF23 levels [1] | further results
iron dextran [reference compound] | 3.55 | 1.2 | -0.07 | -0.1 | -0.9 | 3.58 | 1.4 | -0.06 | 0.1 | -1.5 | 3.55 | 1.3 | -0.08 | -0.1 | -1.3 | −82.5 | −85.6 | −87.3 | −80.0 | rapidly lowered | lowering of cFGF23 levels within 24 hours [1]: 80%; C-terminal FGF23, Day 1 [1]: 152 ± 17.5 RU/mL; C-terminal FGF23, Day 7 [1]: 114 ± 17.7 RU/mL; C-terminal FGF23, Day 14 [1]: 107 ± 16.0 RU/mL; C-terminal FGF23, Day 35 [1]: 170 ± 51.2 RU/mL; FGF-23 C-Terminal, EDTApl-RUO, Visit, Mean (FGF-23 C-Terminal; Day 1): 151.60 RU/mL; FGF-23 C-Terminal, EDTApl-RUO, Change to Visit, Mean (FGF-23 C-Terminal; Day 1 vs baseline): −716.03 RU/mL; FGF-23 C-Terminal, EDTApl-RUO, Visit, Mean (FGF-23 C-Terminal; Day 7): 114.13 RU/mL; FGF-23 C-Terminal, EDTApl-RUO, Change to Visit, Mean (FGF-23 C-Terminal; Day 7 vs baseline): −682.42 RU/mL; FGF-23 C-Terminal, EDTApl-RUO, Visit, Mean (FGF-23 C-Terminal; Day 14): 107.39 RU/mL; FGF-23 C-Terminal, EDTApl-RUO, Change to Visit, Mean (FGF-23 C-Terminal; Day 14 vs baseline): −733.96 RU/mL; FGF-23 C-Terminal, EDTApl-RUO, Visit, Mean (FGF-23 C-Terminal; Day 35): 360.71 RU/mL; FGF-23 C-Terminal, EDTApl-RUO, Change to Visit, Mean (FGF-23 C-Terminal; Day 35 vs baseline): −683.57 RU/mL; FGF-23 C-Terminal, EDTApl-RUO, Visit, Mean (FGF-23 C-Terminal; Minimum post-baseline value): 94.00 RU/mL; FGF-23 C-Terminal, EDTApl-RUO, Change to Visit, Mean (FGF-23 C-Terminal; Minimum value vs baseline): −732.67 RU/mL
polynuclear iron (III)-hydroxide 4(R)-(poly-(1→4)-O-α-glucopyranosyl)-oxy-2(R),3(S),5(R),6-tetrahydroxy-hexanoate [FCM] | 2.51 | 0.7 | -0.87 | -0.8 | -2.3 | 3.42 | 0.7 | -0.92 | -0.7 | -3.5 | 3.92 | 1.0 | -0.38 | -0.2 | -1.9 | −78.6 | −80.9 | −77.5 | −78.9 | rapidly lowered | cumulative dose with no observed adverse effect level [2]: up to 117 mg iron/kg body weight; lowering of cFGF23 levels within 24 hours [1]: 80%; C-terminal FGF23, Day 1 [1]: 177 ± 12.4 RU/mL; C-terminal FGF23, Day 7 [1]: 165 ± 34.9 RU/mL; C-terminal FGF23, Day 14 [1]: 170 ± 55.8 RU/mL; C-terminal FGF23, Day 35 [1]: 182 ± 73.7 RU/mL; cFGF23 in FCM subjects who did vs did not develop serum phosphate<2.0 mg/dL ([1]; stratified analysis): decreased similarly in both groups; FGF-23 C-Terminal, EDTApl-RUO, Visit, Mean (FGF-23 C-Terminal; Day 1): 176.80 RU/mL; FGF-23 C-Terminal, EDTApl-RUO, Change to Visit, Mean (FGF-23 C-Terminal; Day 1 vs baseline): −648.30 RU/mL; FGF-23 C-Terminal, EDTApl-RUO, Visit, Mean (FGF-23 C-Terminal; Day 7): 165.23 RU/mL; FGF-23 C-Terminal, EDTApl-RUO, Change to Visit, Mean (FGF-23 C-Terminal; Day 7 vs baseline): −699.73 RU/mL; FGF-23 C-Terminal, EDTApl-RUO, Visit, Mean (FGF-23 C-Terminal; Day 14): 170.12 RU/mL; FGF-23 C-Terminal, EDTApl-RUO, Change to Visit, Mean (FGF-23 C-Terminal; Day 14 vs baseline): −584.59 RU/mL; FGF-23 C-Terminal, EDTApl-RUO, Visit, Mean (FGF-23 C-Terminal; Day 35): 141.56 RU/mL; FGF-23 C-Terminal, EDTApl-RUO, Change to Visit, Mean (FGF-23 C-Terminal; Day 35 vs baseline): −692.29 RU/mL; FGF-23 C-Terminal, EDTApl-RUO, Visit, Mean (FGF-23 C-Terminal; Minimum post-baseline value): 98.73 RU/mL; FGF-23 C-Terminal, EDTApl-RUO, Change to Visit, Mean (FGF-23 C-Terminal; Minimum value vs baseline): −684.57 RU/mL
